# Laboratory results as given in ChEMBL document CHEMBL4130624, “Optimization of 1,4-Oxazine β-Secretase 1 (BACE1) Inhibitors Toward a Clinical Candidate” (J Med Chem, 2018).
# Calls of active or inactive are those of the source. The calls are words filed in the database; no cut-off is given here.
# Experiments:
# Canis familiaris [1] = assay: Toxicity in Beagle dog assessed as induction of behavioural changes at 0.63 to 20 mg/kg, po qd for 6 days; assay type: organism-based, Canis lupus familiaris; details: in vivo, 144 h
# Cytochrome P450 2C19 = Cytochrome P450 2C19 (Homo sapiens, UniProt P33261); assay: Reversible inhibition of recombinant human CYP2C19 by fluorescence-based assay; assay type: ADME
# Chain of Cytochrome P450 2C19 (P33261 whole entry, the tested form may be a part): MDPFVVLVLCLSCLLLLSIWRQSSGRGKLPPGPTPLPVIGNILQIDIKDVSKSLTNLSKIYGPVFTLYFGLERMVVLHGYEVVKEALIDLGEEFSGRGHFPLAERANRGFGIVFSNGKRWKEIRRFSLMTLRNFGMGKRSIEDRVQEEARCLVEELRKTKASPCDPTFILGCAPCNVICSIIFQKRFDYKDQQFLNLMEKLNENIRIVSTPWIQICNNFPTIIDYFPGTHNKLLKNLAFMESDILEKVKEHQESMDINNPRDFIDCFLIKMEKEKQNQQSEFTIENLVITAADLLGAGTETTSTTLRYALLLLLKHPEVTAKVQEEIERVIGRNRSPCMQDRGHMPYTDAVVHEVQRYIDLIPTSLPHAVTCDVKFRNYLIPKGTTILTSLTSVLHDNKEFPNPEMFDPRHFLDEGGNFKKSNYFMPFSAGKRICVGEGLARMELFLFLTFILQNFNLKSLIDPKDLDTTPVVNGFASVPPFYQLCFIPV
# [2] = Ratio of fEC50 for antialzheimer activity in po dosed Beagle dog assessed as reduction in amyloid beta (1 to 40) levels to Inhibition of BACE1 (1 to 454 residues) (unknown origin); assay type: functional
# Canis familiaris [3] = assay: Systemic clearance in Beagle dog at 1 mg/kg, iv administered as bolus dose by LC-MS/MS analysis relative to liver blood flow; assay type: ADME, organism-based, Canis lupus familiaris; details: in vivo
# Salmonella typhimurium [4] = assay: Mutagenicity in Salmonella typhimurium TAmix up to 500 ug/ml in absence of rat liver S9 fraction by Ames 2 assay; assay type: toxicity, organism-based; details: salmonella enterica subsp. enterica serovar typhimurium
# [5] = Oral bioavailability in Beagle dog at 10 mg/kg administered as bolus dose by LC-MS/MS analysis; assay type: ADME, organism-based, Canis lupus familiaris; details: in vivo
# [6] = Clearance in Swiss mouse at 2.5 mg/kg, iv administered as bolus dose by LC-MS/MS analysis; assay type: ADME, organism-based; details: in vivo
# Canis familiaris [7] = assay: Toxicity in Beagle dog assessed as drug tolerability at 0.63 to 20 mg/kg, po qd for 6 days; assay type: organism-based, Canis lupus familiaris; details: in vivo, 144 h
# [8] = Ratio of drug level in kidney to plasma of Sprague-Dawley rat at 10 mg/kg, po; assay type: ADME, organism-based
# [9] = AUC (0 to 24 hrs) in male Beagle dog at 70 mg/kg, po measured after 1 month repeated dosing by LC-MS/MS analysis; details: in vivo
# [10] = Cmax in female Sprague-Dawley rat at 75 mg/kg, po measured after 1 month repeated dosing by LC-MS/MS analysis; assay type: ADME, organism-based; parameters: dose 75 mg/kg, route oral; details: in vivo
# Beta-secretase 1 = Beta-secretase 1 (Homo sapiens, UniProt P56817); assay: Inhibition of BACE1 in human SKNBE2 cells transfected with APP695 protein assessed as reduction in amyloid beta (1 to 42) levels after 18 hrs by sandwich alphalisa assay; assay type: cell-based
# Chain of Beta-secretase 1 (P56817 whole entry): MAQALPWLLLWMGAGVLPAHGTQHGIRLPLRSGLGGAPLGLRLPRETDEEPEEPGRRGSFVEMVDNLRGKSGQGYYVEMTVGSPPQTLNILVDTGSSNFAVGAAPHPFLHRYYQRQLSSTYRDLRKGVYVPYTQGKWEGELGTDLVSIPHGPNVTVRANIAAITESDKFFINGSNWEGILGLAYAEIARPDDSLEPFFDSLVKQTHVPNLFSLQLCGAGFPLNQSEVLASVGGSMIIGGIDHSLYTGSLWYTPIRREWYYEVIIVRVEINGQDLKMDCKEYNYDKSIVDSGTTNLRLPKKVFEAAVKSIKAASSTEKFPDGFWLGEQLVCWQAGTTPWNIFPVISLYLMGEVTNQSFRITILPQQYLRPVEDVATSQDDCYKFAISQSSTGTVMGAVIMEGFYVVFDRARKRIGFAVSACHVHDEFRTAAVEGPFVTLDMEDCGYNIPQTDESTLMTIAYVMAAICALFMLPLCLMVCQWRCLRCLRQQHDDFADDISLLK
# [11] = Safety index, ratio of NOAEL for cardiotoxicity in anesthetized guinea pigs assessed as total drug level causing QTcB prolongation dosed up to 10 mg/kg, iv administered over a period of 5 min at 15 mins interval by ECG analysis to EC50 for Antialzheimer activity in po dosed Beagle dog assessed as reduction in amyloid beta (1 to 40) levels measured after 1 hr post dose by ELISA; assay type: toxicity, organism-based; details: guinea pig, in vivo
# Canis familiaris [12] = assay: Antialzheimer activity in po dosed Beagle dog assessed as reduction in CSF amyloid beta (1 to 42) levels measured after 49 hrs post dose by MesoScale electrochemiluminescence; details: Canis lupus familiaris
# [13] = AUC (0 to infinity) in Beagle dog at 10 mg/kg, po administered as bolus dose by LC-MS/MS analysis; assay type: ADME, organism-based, Canis lupus familiaris; parameters: dose 10 mg/kg, time infinity, route oral; details: in vivo
# Salmonella typhimurium [14] = assay: Mutagenicity in Salmonella typhimurium TAmix up to 500 ug/ml in presence of rat liver S9 fraction by Ames 2 assay; assay type: toxicity, organism-based; details: salmonella enterica subsp. enterica serovar typhimurium
# TK6 = assay: Genotoxicity in human TK6 cells at 188 ug/ml after 4 hrs in presence of rat liver S9 fraction by micronucleus assay; assay type: toxicity, cell-based; details: s9, 4 h
# Canis familiaris [15] = assay: Toxicity in Beagle dog assessed as induction of appearance changes at 0.63 to 20 mg/kg, po qd for 1 day; assay type: organism-based, Canis lupus familiaris; details: in vivo, 24 h
# [16] = Toxicity in male beagle dog at 20 to 250 mg/kg/day, po qd for 1 month; assay type: organism-based, Canis lupus familiaris; details: in vivo
# [17] = Cmax in female Beagle dog at 70 mg/kg, po measured after 1 month repeated dosing by LC-MS/MS analysis; details: in vivo
# Rattus norvegicus [18] = assay: Toxicity in Sprague-Dawley rat assessed as induction of tissue damage at 225 mg/kg/day, po administered via gavage for 1 month; assay type: organism-based; details: in vivo
# [19] = Volume of distribution at steady state in Swiss mouse at 2.5 mg/kg, iv administered as bolus dose by LC-MS/MS analysis; assay type: ADME, organism-based; details: in vivo, read-out: Vdss
# Mus musculus = assay: Systemic clearance in Swiss mouse at 2.5 mg/kg, iv administered as bolus dose by LC-MS/MS analysis relative to liver blood flow; assay type: ADME, organism-based; details: in vivo
# Canis familiaris [20] = assay: Toxicity in Beagle dog assessed as induction of appearance changes at 0.63 to 20 mg/kg, po qd for 6 days; assay type: organism-based, Canis lupus familiaris; details: in vivo, 144 h
# Canis familiaris [21] = assay: Volume of distribution at steady state in Beagle dog at 1 mg/kg, iv administered as bolus dose by LC-MS/MS analysis; assay type: ADME, organism-based, Canis lupus familiaris; details: in vivo
# [22] = Drug metabolism in human liver microsomes at 1 uM after 15 mins in presence of NADPH by HPLC-MS/MS analysis; assay type: ADME, microsome; details: read-out: Drug metabolism
# Cytochrome P450 3A4 [23] = molecular target: T1, Cytochrome P450 3A4 (Homo sapiens, UniProt P08684); assay: Time dependent inhibition of recombinant human CYP3A4 by fluorescence-based assay; assay type: ADME; details: recombinant enzyme
# T1 sequence (P08684 whole entry): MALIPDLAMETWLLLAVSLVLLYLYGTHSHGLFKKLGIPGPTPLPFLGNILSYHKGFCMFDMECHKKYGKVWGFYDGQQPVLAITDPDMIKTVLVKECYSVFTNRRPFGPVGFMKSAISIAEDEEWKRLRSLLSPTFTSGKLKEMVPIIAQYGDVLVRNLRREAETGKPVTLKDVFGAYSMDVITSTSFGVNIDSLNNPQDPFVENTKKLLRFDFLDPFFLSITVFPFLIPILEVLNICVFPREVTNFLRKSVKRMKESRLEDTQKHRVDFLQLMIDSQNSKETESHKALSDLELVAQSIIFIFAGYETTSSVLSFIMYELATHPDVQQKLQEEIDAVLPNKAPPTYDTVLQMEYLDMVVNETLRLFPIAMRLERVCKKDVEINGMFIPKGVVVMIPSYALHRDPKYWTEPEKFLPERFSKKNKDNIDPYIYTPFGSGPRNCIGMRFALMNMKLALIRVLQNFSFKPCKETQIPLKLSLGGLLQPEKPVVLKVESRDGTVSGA
# [24] = Volume of distribution at steady state in Sprague-Dawley rat at 2.5 mg/kg, iv administered as bolus dose by LC-MS/MS analysis; assay type: ADME, organism-based; details: in vivo, read-out: Vdss
# [25] = AUC (0 to infinity) in Sprague-Dawley rat at 10 mg/kg, po administered as bolus dose by LC-MS/MS analysis; assay type: ADME, organism-based; parameters: dose 10 mg/kg, route oral, time infinity; details: in vivo
# [26] = Clearance in Sprague-Dawley rat at 2.5 mg/kg, iv administered as bolus dose by LC-MS/MS analysis; assay type: ADME, organism-based; details: in vivo
# Salmonella typhimurium [27] = assay: Mutagenicity in Salmonella typhimurium TA98 up to 500 ug/ml in absence of rat liver S9 fraction by Ames 2 assay; assay type: toxicity, organism-based; details: salmonella enterica subsp. enterica serovar typhimurium
# [28] = AUC (0 to infinity) in Swiss mouse at 10 mg/kg, po administered as bolus dose by LC-MS/MS analysis; assay type: ADME, organism-based; parameters: dose 10 mg/kg, time infinity, route oral; details: in vivo
# Cytochrome P450 3A4 [29] = molecular target: T1, Cytochrome P450 3A4; assay: Reversible inhibition of recombinant human CYP3A4 by fluorescence-based assay; assay type: ADME
# [30] = Tmax in Swiss mouse at 10 mg/kg, po administered as bolus dose by LC-MS/MS analysis; assay type: ADME, organism-based; details: in vivo
# [31] = Oral bioavailability in Sprague-Dawley rat at 10 mg/kg administered as bolus dose by LC-MS/MS analysis; assay type: ADME, organism-based; details: in vivo
# Rattus norvegicus [32] = assay: Toxicity in Sprague-Dawley rat assessed as effect on food consumption at 225 mg/kg/day, po administered via gavage for 1 month; assay type: organism-based; details: in vivo
# [33] = Fraction unbound in dog plasma at 5 uM after 4.5 hrs by HPLC-MS/MS method based rapid equilibrium dialysis; assay type: ADME, cell-free, Canis lupus familiaris
# Canis familiaris [34] = assay: Toxicity in beagle dog assessed as induction of reduction in general activity at 70 to 250 mg/kg/day, po qd for 1 week; assay type: organism-based, Canis lupus familiaris; details: in vivo, 168 h
# Cavia porcellus = assay: Cardiotoxicity in anesthetized guinea pigs assessed as drug level causing QTcB prolongation dosed up to 10 mg/kg, iv administered over a period of 5 min at 15 min interval by ECG analysis; assay type: toxicity, organism-based; details: guinea pig, in vivo
# [35] = molecular target: Mu-type opioid receptor (Homo sapiens) (UniProt P35372); assay: Inhibition of recombinant human mu-type opioid receptor at 10 uM after 5 mins
# Chain of Mu-type opioid receptor (Homo sapiens) (P35372 whole entry): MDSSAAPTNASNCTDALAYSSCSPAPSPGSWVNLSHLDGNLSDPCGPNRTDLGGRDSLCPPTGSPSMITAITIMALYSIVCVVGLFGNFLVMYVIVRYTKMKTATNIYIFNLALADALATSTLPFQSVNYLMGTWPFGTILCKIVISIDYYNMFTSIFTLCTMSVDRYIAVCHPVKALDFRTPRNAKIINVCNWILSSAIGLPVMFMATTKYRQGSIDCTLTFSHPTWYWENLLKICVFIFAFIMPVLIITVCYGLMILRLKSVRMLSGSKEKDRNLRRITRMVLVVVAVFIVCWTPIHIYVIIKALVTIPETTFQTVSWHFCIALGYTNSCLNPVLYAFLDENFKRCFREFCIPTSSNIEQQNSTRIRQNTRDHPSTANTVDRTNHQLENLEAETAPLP
structure (smiles),measurement,setting,value
C[C@]1(c2cc(NC(=O)c3ccc(C#N)cn3)ccc2F)N=C(N)CO[C@H]1C(F)(F)F,Activity,Canis familiaris [1],Non-Toxic
same,IC50,Cytochrome P450 2C19,> 30 µM
same,Ratio,[2],3
same,CL,Canis familiaris [3],25%
same,Activity,Salmonella typhimurium [4],Non-Toxic
same,bioavailability,[5],71%
same,clearance,[6],69 mL/min/kg
same,Activity,Canis familiaris [7],Non-Toxic
same,Kp,[8],19
same,AUC at 24 h,[9],26300 ng·h/mL
same,Cmax at 1 month,[10],2720 ng/mL
same,IC50,Beta-secretase 1,6 nM
same,selectivity ratio,[11],50
same,Activity,Canis familiaris [12],Active
same,AUC(0-inf),[13],15400 ng·h/mL
same,Activity,Salmonella typhimurium [14],Non-Toxic
same,Activity,TK6,Non-Toxic
same,Activity,Canis familiaris [15],Non-Toxic
same,NOAEL at 1 month,[16],70 mg/kg/day
same,Cmax at 1 month,[17],2080 ng/mL
same,Activity,Rattus norvegicus [18],Non-Toxic
same,Vd,[19],7.6 L/kg
same,CL,Mus musculus,50%
same,Activity,Canis familiaris [20],Non-Toxic
same,Vdss,Canis familiaris [21],7.6 L/kg
same,"metabolised at 0.25 h, 1 µM",[22],2%
same,TDI,Cytochrome P450 3A4 [23],Not Active
same,Vd,[24],11 L/kg
same,AUC(0-inf),[25],1220 ng·h/mL
same,clearance,[26],47 mL/min/kg
same,Activity,Salmonella typhimurium [27],Non-Toxic
same,AUC(0-inf),[28],1330 ng·h/mL
same,IC50,Cytochrome P450 3A4 [29],> 30 µM
same,Tmax,[30],1 h
same,bioavailability,[31],36%
same,Activity,Rattus norvegicus [32],Non-Toxic
same,"fraction unbound at 4.5 h, 5 µM",[33],0.26
same,Activity,Canis familiaris [34],Toxic
same,LOAEL,Cavia porcellus,11500 ng/mL
same,NOAEL,Cavia porcellus,5235 ng/mL
same,fLOAEL,Cavia porcellus,10.1 µM
same,fNOAEL,Cavia porcellus,4.6 µM
same,inhibition,[35],91%
